Data published in ChEMBL document CHEMBL4340541, “Synthesis of andrographolide analogues and their neuroprotection and neurite outgrowth-promoting activities” (Bioorg Med Chem, 2019).
The source made the active and inactive calls. The rule behind the calls is not given here.

Experiments:
[1] = test system: BV-2; test: Antiinflammatory activity in mouse BV2 cells assessed as reduction in LPS-induced NO production at 20 uM incubated for 24 hrs by Griess method; assay type: functional; conditions: for inhibition at 20 µM: BV-2, 24 h
[2] = Lipophilicity, log P of the compound; assay type: physicochemical; conditions: octanol/water
[3] = test system: PC-12; test: Neuroprotective activity against H2O2-induced toxicity in rat PC12 cells assessed as increase in cell viability at 20 uM pretreated for 24 hrs followed by H2O2 challenge and measured after 24 hrs by MTT assay; assay type: functional, cell-based
[4] = test system: PC-12; test: Neuroprotective activity against 6-OHDA -induced toxicity in rat PC12 cells assessed as increase in cell viability at 20 uM pretreated for 24 hrs followed by 6-OHDA challenge and measured after 24 hrs by MTT assay; assay type: functional, cell-based
[5] = test system: PC-12; test: Induction of neurite outgrowth in NGF-induced rat PC12 cells assessed as neurite bearing cells cotreated with 20 ng/ml NGF incubated for 48 hrs by light microscopy; assay type: functional, cell-based
[6] = test system: BV-2; test: Cytotoxicity in mouse BV2 cells assessed as reduction in cell viability; assay type: cell-based
[7] = test system: PC-12; test: Induction of neurite outgrowth in rat PC12 cells assessed as neurite bearing cells in absence of 20 ng/ml NGF incubated for 48 hrs by light microscopy; assay type: functional, cell-based
[8] = test system: PC-12; test: Induction of neurite outgrowth in NGF-induced rat PC12 cells assessed as neurite bearing cells at 20 uM cotreated with 20 ng/ml NGF incubated for 48 hrs by methylene blue staining based light microscopy; assay type: functional
[9] = test system: PC-12; test: Induction of neurite outgrowth in NGF-induced rat PC12 cells assessed as neurite bearing cells at 20 uM cotreated with 20 ng/ml NGF incubated for 48 hrs by light microscopy; assay type: functional
[10] = test system: BV-2; test: Antiinflammatory activity in mouse BV2 cells assessed as reduction in LPS-induced NO production incubated for 24 hrs by Griess method; assay type: functional, cell-based
[11] = test system: BV-2; test: Antiinflammatory activity in LPS-induced mouse BV2 cells assessed as reduction in iNOS mRNA expression at 20 uM incubated for 24 hrs by RT-PCR analysis method; assay type: functional, cell-based
[12] = test system: BV-2; test: Antiinflammatory activity in LPS induced mouse BV2 cells assessed as reduction in iNOS expression at 20 uM incubated for 24 hrs by DAPI based fluorescence microscopic method; assay type: functional, cell-based
[13] = test system: BV-2; test: Antiinflammatory activity in LPS induced mouse BV2 cells assessed as reduction in TNFalpha incubated for 6 hrs by ELISA method; assay type: functional, cell-based
[14] = test system: BV-2; test: Antiinflammatory activity in LPS induced mouse BV2 cells assessed as reduction in IL-6 incubated for 24 hrs by ELISA method; assay type: functional, cell-based
[15] = test system: BV-2; test: Neuroprotective activity against microglia-conditioned medium-induced cytotoxicity in rat PC12 cells exposed to conditioned medium derived from 24 hrs compound pre-treated mouse BV2 cells assessed as increase in cell viability at 5 to 20 uM by MTT assay; assay type: functional, cell-based
[16] = test system: BV-2; test: Neuroprotective activity against microglia-conditioned medium-induced cytotoxicity in rat PC12 cells exposed to conditioned medium derived from mouse BV2 cells assessed as increase in cell viability at 5 to 20 uM by MTT assay; assay type: functional, cell-based
[17] = test system: PC-12; test: Neuroprotective activity against 6-OHDA -induced toxicity in rat PC12 cells assessed as increase in cell viability at 10 uM pretreated for 24 hrs followed by 6-OHDA challenge and measured after 24 hrs by MTT assay; assay type: functional, cell-based
[18] = test system: PC-12; test: Neuroprotective activity against H2O2-induced toxicity in rat PC12 cells assessed as increase in cell viability at 10 uM pretreated for 24 hrs followed by H2O2 challenge and measured after 24 hrs by MTT assay; assay type: functional, cell-based
[19] = test system: PC-12; test: Induction of neurite outgrowth in NGF-induced rat PC12 cells assessed as neurite bearing cells at 5 to 10 uM cotreated with 20 ng/ml NGF incubated for 48 hrs by light microscopy; assay type: functional, cell-based
[20] = test system: BV-2; test: Antiinflammatory activity in mouse BV2 cells assessed as reduction in LPS-induced NO production at 1 uM incubated for 24 hrs by Griess method relative to control; assay type: functional; conditions: BV-2, 24 h
[21] = test system: BV-2; test: Neuroprotective activity against microglia-conditioned medium-induced cytotoxicity in rat PC12 cells co-cultred with mouse BV2 cells assessed as increase in cell viability at 5 to 20 uM incubated for 4 hrs by MTT assay; assay type: functional, cell-based
[22] = test system: PC-12; test: Cytotoxicity against rat PC12 cells assessed as reduction in cell viability incubated for 48 hrs; assay type: cell-based; conditions: pc-12, 48 h

| Structure (SMILES) | logP ([2]; read-out: logP) | inhibition [1] | Activity [3] | Activity [4] | Activity [6] | Activity [9] | other results |
| --- | --- | --- | --- | --- | --- | --- | --- |
| C=C1CC[C@@H]2[C@](C)(CO[C@@H]3O[C@H](CO)[C@@H](O)[C@H](O)[C@H]3O)CCC[C@@]2(C)[C@@H]1CCC1=CCOC1=O [NEOANDROGRAPHOLIDE] | 3.07 | inactive | inactive | inactive | Non-Toxic | – | Activity [5]: Dose-dependent effect; Activity [7]: Active; Activity [8]: 21.5% |
| C=C1CC[C@@H]2[C@](C)(COC(C)=O)[C@H](OC(C)=O)CC[C@@]2(C)[C@@H]1CCC1=CCOC1=O | 4.02 | Active | inactive | inactive | Non-Toxic | inactive | – |
| C=C1CC[C@@H]2[C@](C)(COC(C)=O)[C@H](OC(C)=O)CC[C@@]2(C)[C@@H]1C/C=C1\C=COC1=O | 3.87 | – | inactive | inactive | Non-Toxic | inactive | inhibition at 20 µM [1]: 78%; inhibition [10]: Dose-dependent effect; Activity [11]: Active; Activity [12]: Active; Activity [13]: Dose-dependent effect; Activity [14]: Dose-dependent effect; Activity [15]: Active; Activity [16]: inactive |
| C=C1CC[C@@H]2[C@](C)(CO)[C@H](O)CC[C@@]2(C)[C@@H]1C/C=C1/C(=O)OC[C@H]1O [ANDROGRAPHOLIDE] | – | – | – | – | – | Active | inhibition at 20 µM [1]: 76.7% |
| C=C1CC[C@@H]2[C@](C)(COC(C)=O)[C@H](OC(C)=O)CC[C@@]2(C)[C@@H]1CCC1C(=O)OC[C@H]1OC(C)=O (stereo partly specified) | 3.71 | Active | inactive | inactive | Non-Toxic | inactive | – |
| C=C1CC[C@@H]2[C@](C)(CO)[C@H](O)CC[C@@]2(C)[C@@H]1/C=C/C1=CCOC1=O | – | inactive | inactive | inactive | Non-Toxic | <=16.1% | logP [2]: 3.23; Activity [5]: Dose-dependent effect; Activity [7]: Active; Activity [8]: 18.6% |
| CC(=O)OC[C@@]1(C)[C@H]2CCC(C)=C(C[C@H](OC(C)=O)C3=CCOC3=O)[C@]2(C)CC[C@H]1OC(C)=O | 2.96 | – | Active | Active | Non-Toxic | – | inhibition at 20 µM [1]: 95.7%; inhibition [10]: Dose-dependent effect; Activity [11]: Active; Activity [12]: Active; Activity [13]: Dose-dependent effect; Activity [14]: Dose-dependent effect; Activity [19]: inactive; inhibition at 1 µM [20]: 34.4%; Activity [15]: Active; Activity [16]: inactive; Activity [21]: Active; Activity [22]: Toxic |
| C=C1CC[C@@H]2[C@](C)(COC(C)=O)[C@H](OC(C)=O)CC[C@@]2(C)[C@@H]1/C=C/C1=CCOC1=O | 3.83 | Active | inactive | inactive | Non-Toxic | inactive | – |

The next lines start with results.

| logP ([2]; read-out: logP) | Structure (SMILES) | inhibition [1] | Activity [3] | Activity [4] | Activity [6] | Activity [9] | other results |
| --- | --- | --- | --- | --- | --- | --- | --- |
| 2.9 | CC1=C(CCC2=CCOC2=O)[C@]2(C)CC[C@@H](O)[C@@](C)(CO)[C@H]2CC1 | inactive | inactive | inactive | Non-Toxic | Active | Activity [5]: Dose-dependent effect; Activity [7]: Active; Activity [8]: 31.2% |
| 2.16 | C[C@@]1(CO)[C@H](O)CC[C@@]2(C)C3CC(C4=CCOC4=O)O[C@]3(C)CC[C@H]12 (stereo partly specified) | inactive | Active | Active | Non-Toxic | inactive | Activity [17]: Active; Activity [18]: Active |
| 3.43 | C=C1CC[C@@H]2[C@](C)(CO)[C@H](O)CC[C@@]2(C)[C@@H]1CCC1=CCOC1=O [DEOXYANDROGRAPHOLIDE] | inactive | inactive | inactive | Non-Toxic | inactive | – |
| 3.28 | C=C1CC[C@@H]2[C@](C)(CO)[C@H](O)CC[C@@]2(C)[C@@H]1C/C=C1\C=COC1=O | inactive | inactive | inactive | Non-Toxic | inactive | – |
| 2.54 | C=C1CC[C@@H]2[C@](C)(CO)[C@H](O)CC[C@@]2(C)[C@@H]1CCC1C(=O)OC[C@H]1O (stereo partly specified) | inactive | inactive | inactive | Non-Toxic | inactive | – |
